Structures can show the parent of a compound that is named as a salt.

One experiment has as its target T1, CHK1 (kinase domain) (Homo sapiens, UniProt O14757).
T1 construct: a solution containing 1 nM of CHK1 (kinase domain)
T1 sequence (O14757 9-265 limits assumed): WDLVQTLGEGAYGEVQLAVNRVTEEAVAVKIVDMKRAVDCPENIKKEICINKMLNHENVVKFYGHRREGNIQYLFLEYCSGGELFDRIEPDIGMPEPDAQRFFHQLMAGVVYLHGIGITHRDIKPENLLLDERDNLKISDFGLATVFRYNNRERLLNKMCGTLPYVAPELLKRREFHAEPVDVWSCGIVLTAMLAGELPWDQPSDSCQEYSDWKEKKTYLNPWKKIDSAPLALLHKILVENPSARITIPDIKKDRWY
Put plainly: CHK1 Ki determination, spectrophotometric coupled (pyruvate kinase/lactate dehydrogenase) assay. The experiment is classed as biochemical. The note with it: CHK-1 kinase domain; 150 uM ATP, 125 uM Syntide 2. The method in brief:
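The CHK1 kinase domain was pre-incubated with compound for 15 min, and the reaction was started with 125 uM Syntide 2 and 150 uM ATP. ADP formation was coupled through pyruvate kinase/lactate dehydrogenase to NADH oxidation, read as the A340 decrease. Kiapp was fitted with a tight-binding equation that accounts for enzyme concentration and ATP Km; some entries are % inhibition.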

The next experiment concerns Mia Paca-2 cells. Briefly: Histone H3 (Ser10) phosphorylation ELISA, abrogation of camptothecin-induced G2 arrest (CHK-1 cellular assay). The note with it: camptothecin 8 hrs, then compound with nocodozole 16 hours. The experiment is classed as cell-based. The method in brief:
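HeLa cells, or Mia Paca-2 where marked, were damaged with camptothecin for 8 h, then exposed to compound with nocodazole for 16 h. Mitotic entry was read as phospho-histone H3 (Ser10) by sandwich ELISA, with absorbance at 450 nm. EC50 came from four-parameter sigmoid fitting.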

Setting [1] is: Homo sapiens, Mia Paca-2 cells (entries marked *).
[2] abbreviates: Homo sapiens, MIA PaCa-2, Mia Paca-2 cells (entries marked *).
Where [3] appears, read: Mia Paca-2 cells (entries marked *).

By Ki is commonly meant a measure of affinity in units of concentration, obtained from inhibition or displacement. Low readings indicate higher affinity, high ones lower affinity. As a reminder, the EC50 is the midpoint of the concentration-response curve. A low value points to a more potent agent. Regarding `Cc1nn2c(-c3cncc(N[C@@H]4CCCNC4)n3)cnc2s1` [Example 120, 6-(2-methylimidazo[2,1-b][1,3,4]thiadiazol-5-yl)-N-[(3R)-piperidin-3-yl]pyrazin-2-amine], on CHK1 (kinase domain), the inhibition constant Ki worked out at 34.3 nM. The response in the experiment on Mia Paca-2 cells (setting [1]) was half-maximal at 686 nM (EC50).

Turning to `CC1(COc2ccn3c(-c4cncc(N[C@@H]5CCNC5)n4)cnc3c2)COC1` [Example 154, 6-{7-[(3-methyloxetan-3-yl)methoxy]imidazo[1,2-a]pyridin-3-yl}-N-[(3R)-pyrrolidin-3-yl]pyrazin-2-amine], the Ki at CHK1 (kinase domain) stood at 3.9 nM. For the same compound, the concentration giving a half-maximal response (EC50) in the experiment on Mia Paca-2 cells (setting [1]) came to 602 nM.

Regarding `C[C@@H]1CNC[C@@H]1Nc1cncc(-c2cnn3ccncc23)n1` [Example 253, N-[(3R,4R)-4-methylpyrrolidin-3-yl]-6-(pyrazolo[1,5-a]pyrazin-3-yl)pyrazin-2-amine, acetate salt], the Ki at CHK1 (kinase domain) worked out at 85.6 nM. In addition, the midpoint of the response in the experiment with Mia Paca-2 cells (setting [1]), the EC50, lay at 1030 nM.

For the compound `Cc1cn2c(-c3cncc(N[C@H]4CN[C@H](CO)C4)n3)cnc2s1` [Example 237, [(2S,4R)-4-{[6-(2-methylimidazo[2,1-b][1,3]thiazol-5-yl)pyrazin-2-yl]amino}pyrrolidin-2-yl]methanol], at CHK1 (kinase domain), the inhibition constant (Ki) worked out at 2.98 nM. In the experiment on Mia Paca-2 cells (setting [1]), this compound came in with an EC50 of 46.7 nM.

`COc1ccn2c(-c3cncc(N[C@H]4CN[C@H](COC(C)C)C4)n3)cnc2c1` [Example 242, 6-(7-methoxyimidazo[1,2-a]pyridin-3-yl)-N-{(3R,5S)-5-[(propan-2-yloxy)methyl]pyrrolidin-3-yl}pyrazin-2-amine]: the inhibition constant (Ki) on CHK1 (kinase domain) amounted to 28 nM. In addition, the response in the experiment with Mia Paca-2 cells (setting [1]) was half-maximal at 129 nM (EC50).

`Clc1cc2c(cn1)ncn2-c1cncc(N[C@@H]2CCCNC2)n1` [Example 255, 6-(6-chloro-1H-imidazo[4,5-c]pyridin-1-yl)-N-[(3R)-piperidin-3-yl]pyrazin-2-amine] displayed a Ki on CHK1 (kinase domain) of 34.5 nM. The EC50 with Mia Paca-2 cells (setting [1]) was 597 nM.

At CHK1 (kinase domain), `Clc1cc2c(cn1)ncn2-c1cncc(N[C@@H]2CCNC2)n1` [Example 271, 6-(6-chloro-1H-imidazo[4,5-c]pyridin-1-yl)-N-[(3R)-pyrrolidin-3-yl]pyrazin-2-amine] displayed a Ki of 118 nM. In the experiment on Mia Paca-2 cells (setting [1]), the EC50 turned out to be 4770 nM.

On CHK1 (kinase domain), `COc1ccc2c(-c3cncc(N[C@@H]4CCCNC4)n3)cnn2c1` [Example 33, 6-(6-methoxypyrazolo[1,5-a]pyridin-3-yl)-N-[(3R)-piperidin-3-yl]pyrazin-2-amine] had an inhibitory constant (Ki) of 1 nM. In the experiment on Mia Paca-2 cells (setting [1]), this compound yielded a 50% effective concentration (EC50) of 7.27 nM.

With `COc1ccn2c(-c3cncc(N[C@@H]4C5CCN(CC5)[C@@H]4C)n3)cnc2c1` [Example 19, (2R,3R)—N-[6-(7-methoxyimidazo[1,2-a]pyridin-3-yl)pyrazin-2-yl]-2-methyl-1-azabicyclo[2.2.2]octan-3-amine], the Ki on CHK1 (kinase domain) was found to be 167 nM. In the experiment on Mia Paca-2 cells (setting [1]), this compound yielded a 50% effective concentration (EC50) of 10000 nM.

At CHK1 (kinase domain), `Cc1ncc(-c2cnc3ccccn23)nc1N[C@@H]1CCCNC1` [Example 16, 6-(imidazo[1,2-a]pyridin-3-yl)-3-methyl-N-[(3R)-piperidin-3-yl]pyrazin-2-amine] had an inhibition constant Ki of 19.4 nM. The compound further gave an EC50 with Mia Paca-2 cells (setting [2]) of 81.1 nM.

On to `CO[C@@H]1CCNC[C@H]1Nc1cncc(-c2cnc3ccccn23)n1` [Example 260, 6-(imidazo[1,2-a]pyridin-3-yl)-N-[(3R,4R)-4-methoxypiperidin-3-yl]pyrazin-2-amine (HCl salt)], for which affinity on CHK1 (kinase domain) was put at a Ki of 233 nM. The same compound showed an EC50 in the experiment with Mia Paca-2 cells (setting [2]) of 549 nM.

Consider `COc1ccc2ncc(-c3cncc(N[C@@H]4CCCNC4)n3)n2c1` [Example 7, 6-(6-Methoxyimidazo[1,2-a]pyridin-3-yl)-N-[(3R)-piperidin-3-yl]pyrazin-2-amine], for which, at CHK1 (kinase domain), affinity was put at a Ki of 1.65 nM. The compound further had an EC50 in the experiment on Mia Paca-2 cells (setting [1]) of 16.7 nM.

Compound `CCCOC[C@@H]1C[C@@H](Nc2cncc(-c3cnc4ccccn34)n2)CN1` [Example 192, 6-(imidazo[1,2-a]pyridin-3-yl)-N-[(3R,5S)-5-(propoxymethyl)pyrrolidin-3-yl]pyrazin-2-amine] came in with a Ki on CHK1 (kinase domain) of 29.2 nM. The EC50 with Mia Paca-2 cells (setting [1]) was 187 nM.

Compound `N#Cc1ccc2c(-c3cncc(N[C@@H]4CCCNC4)n3)cnn2c1` [Example 21, 3-{6-[(3R)-piperidin-3-ylamino]pyrazin-2-yl}pyrazolo[1,5-a]pyridine-6-carbonitrile] gave a Ki on CHK1 (kinase domain) of 6.02 nM. In the experiment with Mia Paca-2 cells (setting [1]), this compound returned an EC50 of 68.8 nM.

At CHK1 (kinase domain), `OC[C@@H]1C[C@@H](Nc2cncc(-c3cnc4ccccn34)n2)CN1` [Example 238, [(2S,4R)-4-{[6-(imidazo[1,2-a]pyridin-3-yl)pyrazin-2-yl]amino}pyrrolidin-2-yl]methanol] showed an inhibition constant Ki of 4.9 nM. In addition, in the experiment on Mia Paca-2 cells (setting [1]), the EC50 was found to be 87.1 nM.

At CHK1 (kinase domain), `Clc1ccc2ncc(-c3cncc(N[C@@H]4CCCNC4)n3)n2c1` [Example 5, 6-(6-Chloroimidazo[1,2-a]pyridin-3-yl)-N-[(3R)-piperidin-3-yl]pyrazin-2-amine] registered a Ki of 2.49 nM. This compound displayed a 50% effective concentration (EC50) in the experiment with Mia Paca-2 cells (setting [2]) of 18.3 nM.

Regarding `Fc1ccc2ncc(-c3cncc(N[C@@H]4CCCNC4)n3)n2c1` [Example 87, 6-(6-fluoroimidazo[1,2-a]pyridin-3-yl)-N-[(3R)-piperidin-3-yl]pyrazin-2-amine], the Ki at CHK1 (kinase domain) was found to be 8.63 nM. This compound also had a concentration for a half-maximal effect (EC50) in the experiment on Mia Paca-2 cells (setting [2]) of 127 nM.

Turning to `C[C@@H]1NCCC[C@H]1Nc1cncc(-c2cnc3ccc(C(F)(F)F)cn23)n1` [Example 227, N-[(2S,3R)-2-methylpiperidin-3-yl]-6-[6-(trifluoromethyl)imidazo[1,2-a]pyridin-3-yl]pyrazin-2-amine], the inhibition constant Ki at CHK1 (kinase domain) turned out to be 92 nM. The concentration for a half-maximal effect (EC50) in the experiment with Mia Paca-2 cells (setting [2]) came to 1000 nM.

With `Fc1ccn2c(-c3cncc(N[C@@H]4CCCNC4)n3)cnc2c1` [Example 235, 6-(7-fluoroimidazo[1,2-a]pyridin-3-yl)-N-[(3R)-piperidin-3-yl]pyrazin-2-amine], on CHK1 (kinase domain), the Ki came to 6.8 nM. The same compound gave an EC50 with Mia Paca-2 cells (setting [2]) of 67.9 nM.

`COc1ccn2c(-c3cncc(N[C@H]4CNC[C@H]4C4CC4)n3)cnc2c1` [Example 211, N-[(3R,4R)-4-cyclopropylpyrrolidin-3-yl]-6-(7-methoxyimidazo[1,2-a]pyridin-3-yl)pyrazin-2-amine]: the Ki at CHK1 (kinase domain) amounted to 2.54 nM. Also, in the experiment with Mia Paca-2 cells (setting [2]), a half-maximal effect (EC50) was put at 4.59 nM.

`C[C@H]1NCCC[C@H]1Nc1cncc(-c2cnc3cnccn23)n1` [Example 163, 6-(imidazo[1,2-a]pyrazin-3-yl)-N-[(2R,3R)-2-methylpiperidin-3-yl]pyrazin-2-amine] had an inhibitory constant (Ki) on CHK1 (kinase domain) of 14 nM. In the experiment on Mia Paca-2 cells (setting [1]), this compound had an EC50 of 248 nM.

Regarding `C[C@H]1NCCC[C@H]1Nc1cncc(-c2cnc3ccc(C(F)(F)F)cn23)n1` [Example 228, N-[(2R,3R)-2-methylpiperidin-3-yl]-6-[6-(trifluoromethyl)imidazo[1,2-a]pyridin-3-yl]pyrazin-2-amine], the inhibitory constant (Ki) at CHK1 (kinase domain) is 6.5 nM. The EC50 in the experiment on Mia Paca-2 cells (setting [2]) amounted to 24.5 nM.

Compound `FC(F)(F)c1ccc2ncc(-c3cncc(N[C@@H]4CCNC4)n3)n2c1` [Example 13, N-[(3R)-pyrrolidin-3-yl]-6-[6-(trifluoromethyl)imidazo[1,2-a]pyridin-3-yl]pyrazin-2-amine] showed a Ki on CHK1 (kinase domain) of 12.8 nM. In addition, the midpoint of the response in the experiment with Mia Paca-2 cells (setting [1]), the EC50, lay at 513 nM.

With `CO[C@H]1CCNC[C@@H]1Nc1cncc(-c2cnc3ccccn23)n1` [Example 259, 6-(imidazo[1,2-a]pyridin-3-yl)-N-[(3S,4S)-4-methoxypiperidin-3-yl]pyrazin-2-amine], the affinity on CHK1 (kinase domain), expressed as Ki, was 3.82 nM. Besides, the concentration giving a half-maximal response (EC50) in the experiment on Mia Paca-2 cells (setting [3]) was found to be 38.8 nM.

In turn, `CO[C@H]1CCNC[C@@H]1Nc1cncc(-c2cnc3ccccn23)n1` [Example 29, 6-imidazo[1,2-a]pyridin-3-yl-N-[(3S,4S)-4-methoxypiperidin-3-yl]pyrazin-2-amine] returned a Ki at CHK1 (kinase domain) of 5.51 nM. The compound also gave an EC50 in the experiment with Mia Paca-2 cells (setting [3]) of 86.8 nM.

Take `COc1cc2ncn(-c3cncc(N[C@@H]4CCCNC4)n3)c2cn1` [Example 18, 6-(6-methoxy-3H-imidazo[4,5-c]pyridin-3-yl)-N-[(3R)-piperidin-3-yl]pyrazin-2-amine]: the Ki on CHK1 (kinase domain) worked out at 1.23 nM. This compound returned a concentration giving a half-maximal response (EC50) with Mia Paca-2 cells (setting [1]) of 19.1 nM.

On CHK1 (kinase domain), `COc1cc2c(cn1)ncn2-c1cncc(N[C@@H]2CCCNC2)n1` [Example 17, 6-(6-methoxy-1H-imidazo[4,5-c]pyridin-1-yl)-N-[(3R)-piperidin-3-yl]pyrazin-2-amine] had an inhibitory constant (Ki) of 6.41 nM. In addition, in the experiment on Mia Paca-2 cells (setting [1]), the EC50 came to 59.5 nM.

Compound `FC1(F)CCNCC1Nc1cncc(-c2cnc3ccc(Cl)cn23)n1` (stereo not drawn) [Example 230, 6-(6-chloroimidazo[1,2-a]pyridin-3-yl)-N-(4,4-difluoropiperidin-3-yl)pyrazin-2-amine] came in with a Ki at CHK1 (kinase domain) of 9.2 nM. The same compound yielded an EC50 in the experiment on Mia Paca-2 cells (setting [2]) of 76.8 nM.

In turn, `COC[C@@H]1C[C@@H](Nc2cncc(-c3cnn4ccccc34)n2)CN1` [Example 261, N-[(3R,5S)-5-(methoxymethyl)pyrrolidin-3-yl]-6-(pyrazolo[1,5-a]pyridin-3-yl)pyrazin-2-amine] had a Ki at CHK1 (kinase domain) of 14.9 nM. The EC50 in the experiment with Mia Paca-2 cells (setting [1]) came to 37 nM.

On CHK1 (kinase domain), `CCOC[C@@H]1C[C@@H](Nc2cncc(-c3cnc4cc(OC)ccn34)n2)CN1` [Example 243, N-[(3R,5S)-5-(ethoxymethyl)pyrrolidin-3-yl]-6-(7-methoxyimidazo[1,2-a]pyridin-3-yl)pyrazin-2-amine] yielded a Ki of 24.8 nM. The compound further had a concentration for a half-maximal effect (EC50) with Mia Paca-2 cells (setting [1]) of 172 nM.

These data come from US8518952B2, “6 substituted 2-heterocyclylamino pyrazine compounds as CHK-1 inhibitors” (Pfizer Inc., priority 2008, dated 2013).
